These results are taken from ChEMBL document CHEMBL5143711, “Glenthmycins A-M: Macrocyclic Spirotetronate Polyketide Antibacterials from the Australian Pasture Plant-Derived Streptomyces sp. CMB-PB041” (J Nat Prod, 2022).

Usually IC50 stands for the concentration that inhibits the measured activity by half. Low readings indicate higher potency, high ones lower potency.

The subject of the assay is Mycobacterium tuberculosis variant bovis. Briefly: Antibacterial activity against Mycobacterium bovis BCG ATCC 35741 incubated for 16 to 24 hrs by broth microdilution based spectrophotometric analysis. It is filed as functional, organism-based. Background: Dilution methods test growth across graded concentrations, often in twofold steps.
Consider `COc1cc(C)c(C(=O)O[C@H]2[C@@H](O)[C@@H](O)[C@H](O[C@H]3CC[C@H](C)[C@@H]4[C@@H]3C=C(C)[C@H]3/C(C)=C/CC/C(C)=C/[C@@H]5C=C(C(=O)O)[C@H](C)C[C@]56OC(=O)C(=C6O)C(=O)[C@@]43C)O[C@@H]2C)c(O)c1`, for which the IC50 was above 30 µM. `COc1cc(C)c(C(=O)O[C@H]2[C@@H](O)[C@H](O[C@H]3CC[C@H](C)[C@@H]4[C@@H]3C=C(C)[C@H]3/C(C)=C/CC/C(C)=C/[C@]5(C)C=C(C(=O)O)[C@H](C)C[C@]56OC(=O)C(=C6O)C(=O)[C@@]43C)O[C@H](C)[C@H]2O)c(O)c1` yielded an IC50 above 30 µM.

On to `COc1cc(C)c(C(=O)O[C@H]2[C@H](O[C@H]3CC[C@H](C)[C@@H]4[C@@H]3C=C(C)[C@H]3/C(C)=C/CC/C(C)=C/[C@@H]5C=C(C(=O)O)[C@H](C)C[C@]56OC(=O)C(=C6O)C(=O)[C@@]43C)O[C@H](C)[C@@H](O)[C@H]2O)c(O)c1`, for which the IC50 is above 30 µM.

In turn, `COc1cc(C)c(C(=O)O[C@H]2[C@H](O[C@H]3CC[C@H](C)[C@@H]4[C@@H]3C=C(C)[C@H]3/C(C)=C/CC/C(C)=C/[C@]5(C)C=C(C(=O)O)[C@H](C)C[C@]56OC(=O)C(=C6O)C(=O)[C@@]43C)O[C@H](C)[C@@H](O)[C@H]2O)c(O)c1` gave an IC50 above 30 µM.

Take `COc1cc(C)c(C(=O)O[C@H]2[C@@H](O)[C@@H](O)[C@H](O[C@H]3CC[C@H](C)[C@@H]4[C@@H]3C=C(C)[C@H]3/C(C)=C/CC/C(C)=C/[C@]5(C)C=C(C(=O)O)[C@H](C)C[C@]56OC(=O)C(=C6O)C(=O)[C@@]43C)O[C@@H]2C)c(OC)c1`: the IC50 was above 30 µM. The figure for `COc1cc(C)c(C(=O)N[C@@H]2[C@@H](C)O[C@@H](O[C@H]3CC[C@H](C)[C@@H]4[C@@H]3C=C(C)[C@H]3/C(C)=C/CC/C(C)=C/[C@]5(C)C=C(C(=O)O)[C@H](C)C[C@]56OC(=O)C(=C6O)C(=O)[C@@]43C)[C@H](O)[C@]2(C)O)c(O)c1` is above 30 µM; for `CC(=O)O[C@H]1CC[C@H](C)[C@@H]2[C@@H]1C=C(C)[C@H]1/C(C)=C/CC/C(C)=C/[C@]3(C)C=C(C)[C@H](C)C[C@]34OC(=O)C(=C4O)C(=O)[C@@]21C` it is above 30 µM; for `CC1=C[C@@]2(C)/C=C(\C)CC/C=C(\C)[C@@H]3C(C)=C[C@H]4[C@@H]([C@@H](C)CC[C@@H]4O)[C@]3(C)C(=O)C3=C(O)[C@@]2(C[C@H]1C)OC3=O` it is above 30 µM.

`CC(=O)O[C@H]1CC[C@H](C)[C@@H]2[C@@H]1C=C(C)[C@H]1/C(C)=C/CC/C(C)=C/[C@@H]3C=C(C)[C@H](C)C[C@]34OC(=O)C(=C4O)C(=O)[C@@]21C`: the IC50 is above 30 µM.

As to `COc1cc(C)c(C(=O)O[C@H]2[C@@H](O)[C@@H](O)[C@H](O[C@H]3CC[C@H](C)[C@@H]4[C@@H]3C=C(C)[C@H]3/C(C)=C/CC/C(C)=C/[C@]5(C)C=C(C(=O)O)[C@H](C)C[C@]56OC(=O)C(=C6O)C(=O)[C@@]43C)O[C@@H]2C)c(O)c1`, the half-maximal inhibitory concentration (IC50) was above 30 µM. Under `COc1cc(C)c(C(=O)N[C@@H]2[C@@H](C)O[C@@H](O[C@H]3CC[C@H](C)[C@@H]4[C@@H]3C=C(C)[C@H]3/C(C)=C/CC/C(C)=C/[C@@H]5C=C(C(=O)O)[C@H](C)C[C@]56OC(=O)C(=C6O)C(=O)[C@@]43C)[C@H](O)[C@]2(C)O)c(O)c1` stands above 30 µM.

`COc1cc(C)c(C(=O)O[C@H]2[C@@H](O)[C@H](O[C@H]3CC[C@H](C)[C@@H]4[C@@H]3C=C(C)[C@H]3/C(C)=C/CC/C(C)=C/[C@@H]5C=C(C(=O)O)[C@H](C)C[C@]56OC(=O)C(=C6O)C(=O)[C@@]43C)O[C@H](C)[C@H]2O)c(O)c1` displayed an IC50 above 30 µM.
